Assay: xn = mol fraction of the nth substance listed
Details: 100 kPa, Liquid; for electrical conductivity: Alternating current cell with electrodes; for viscosity: Concentric cylinders viscometry; for mass density: Vibrating tube method

O=[PH](O)O [phosphonic acid] + CN(C)C=O
Details	electrical conductivity [S/m]	mass density [kg/m3]	viscosity [mPa·s]
338.15 K, x1 = 0.0911	–	954.96	–
338.15 K, x1 = 0.1365	–	979.11	–
338.15 K, x1 = 0.1798	–	1003.68	–
338.15 K, x1 = 0.1829	–	1004.95	–
338.15 K, x1 = 0.1973	–	–	1.67
338.15 K, x1 = 0.2293	–	1032.82	–
338.15 K, x1 = 0.2507	–	–	2.45
338.15 K, x1 = 0.291	–	1068.59	–
338.15 K, x1 = 0.2984	–	–	3.49
338.15 K, x1 = 0.3115	–	–	3.66
338.15 K, x1 = 0.3298	–	1093.82	–
338.15 K, x1 = 0.3442	–	1102.06	–
338.15 K, x1 = 0.3491	–	–	5.02
338.15 K, x1 = 0.3712	–	1119.72	–
338.15 K, x1 = 0.3937	–	1133.99	–
338.15 K, x1 = 0.3968	–	–	7
338.15 K, x1 = 0.3988	–	–	6.98
338.15 K, x1 = 0.4107	–	1155.74	7.75
338.15 K, x1 = 0.421	–	1160.23	–
338.15 K, x1 = 0.4479	–	1172.2	9.91
338.15 K, x1 = 0.4707	–	1187.28	–
338.15 K, x1 = 0.493	–	1201.35	–
338.15 K, x1 = 0.4968	–	–	12.7
338.15 K, x1 = 0.5074	–	1210.34	11.6
338.15 K, x1 = 0.5196	–	1220.86	–
338.15 K, x1 = 0.5429	–	1236.41	–
338.15 K, x1 = 0.5503	–	–	17.2
338.15 K, x1 = 0.5724	–	1258.27	–
338.15 K, x1 = 0.5761	–	–	18.7
338.15 K, x1 = 0.5925	–	1272.25	–
338.15 K, x1 = 0.5993	–	–	19.2
338.15 K, x1 = 0.6245	–	1295.1	–
338.15 K, x1 = 0.6261	–	–	22.6
338.15 K, x1 = 0.6316	–	–	22.3
338.15 K, x1 = 0.6478	–	–	23.8
338.15 K, x1 = 0.6554	1.06	1322.46	23.6
338.15 K, x1 = 0.6753	–	1331.43	–
338.15 K, x1 = 0.682	1.39	–	25.2
338.15 K, x1 = 0.6923	–	1345.85	–
338.15 K, x1 = 0.7142	–	1374.38	27
338.15 K, x1 = 0.725	–	1368.62	–
338.15 K, x1 = 0.7592	–	1400.4	–
338.15 K, x1 = 0.7694	2.29	1411.68	28.6
338.15 K, x1 = 0.7832	2.42	–	29.1
338.15 K, x1 = 0.7845	–	1422.74	–
348.15 K, x1 = 0.0911	–	945.43	–
348.15 K, x1 = 0.1365	–	969.77	–
348.15 K, x1 = 0.1798	–	994.4	–
348.15 K, x1 = 0.1829	–	995.9	–
348.15 K, x1 = 0.2293	–	1023.58	–
348.15 K, x1 = 0.291	–	1059.58	–
348.15 K, x1 = 0.3298	–	1084.14	–
348.15 K, x1 = 0.3442	–	1093.18	–
348.15 K, x1 = 0.3712	–	1110.71	–
348.15 K, x1 = 0.3937	–	1125.23	–
348.15 K, x1 = 0.4107	–	1147	–
348.15 K, x1 = 0.421	–	1150.66	–
348.15 K, x1 = 0.4479	–	1158.49	–
348.15 K, x1 = 0.4707	–	1177.52	–
348.15 K, x1 = 0.493	–	1192.77	–
348.15 K, x1 = 0.5074	–	1201.8	–
348.15 K, x1 = 0.5196	–	1210.75	–
348.15 K, x1 = 0.5429	–	1227.92	–
348.15 K, x1 = 0.5724	–	1254.23	–
348.15 K, x1 = 0.5925	–	1263.87	–
348.15 K, x1 = 0.6245	–	1286.78	–
348.15 K, x1 = 0.6554	–	1310.01	–
348.15 K, x1 = 0.6753	–	1324.98	–
348.15 K, x1 = 0.6923	–	1337.69	–
348.15 K, x1 = 0.7142	–	1366.2	–
348.15 K, x1 = 0.725	–	1373	–
348.15 K, x1 = 0.7592	–	1394.6	–
348.15 K, x1 = 0.7694	–	1401.02	–
348.15 K, x1 = 0.7845	–	1410.65	–
